According to PubChem BioAssay (NCI):
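Growth conditions: 96-well plates. Treatment: test compound, 48 hours, 5 concentrations. Analysis: linear interpolation between bracketing concentrations; unreached endpoints set to highest concentration. The concentration for 50% growth inhibition is given as GI50. TGI denotes the concentration required for complete inhibition of growth.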

Key:
Assay in all cases: NCI tumour cell line growth inhibition, 48 h
U251 CNS = system: U251 CNS
RPMI-8226 leukemia = system: RPMI-8226 leukemia
NCI-H23 lung = system: NCI-H23 lung
M14 melanoma = system: M14 melanoma
SN12C renal = system: SN12C renal
MCF7 breast = system: MCF7 breast
UO-31 renal = system: UO-31 renal
MDA-MB-231 breast = system: MDA-MB-231 breast
MOLT-4 leukemia = system: MOLT-4 leukemia
CCRF-CEM leukemia = system: CCRF-CEM leukemia
OVCAR-3 ovarian = system: OVCAR-3 ovarian
SK-MEL-5 melanoma = system: SK-MEL-5 melanoma
OVCAR-4 ovarian = system: OVCAR-4 ovarian
LOX IMVI melanoma = system: LOX IMVI melanoma
SNB-19 CNS = system: SNB-19 CNS
K-562 leukemia = system: K-562 leukemia
HCT-116 colon = system: HCT-116 colon
CAKI-1 renal = system: CAKI-1 renal
OVCAR-5 ovarian = system: OVCAR-5 ovarian
NCI-H460 lung = system: NCI-H460 lung
MDA-N = system: MDA-N
ACHN renal = system: ACHN renal
TK-10 renal = system: TK-10 renal
COLO 205 colon = system: COLO 205 colon
786-0 renal = system: 786-0 renal
OVCAR-8 ovarian = system: OVCAR-8 ovarian
SK-MEL-2 melanoma = system: SK-MEL-2 melanoma
MDA-MB-435 = system: MDA-MB-435
HCC-2998 colon = system: HCC-2998 colon
KM12 colon = system: KM12 colon
DU-145 prostate = system: DU-145 prostate
UACC-257 melanoma = system: UACC-257 melanoma
SF-295 CNS = system: SF-295 CNS
HOP-62 NSCLC = system: HOP-62 NSCLC
MALME-3M melanoma = system: MALME-3M melanoma
A549 NSCLC = system: A549 NSCLC
EKVX NSCLC = system: EKVX NSCLC
PC-3 prostate = system: PC-3 prostate
HT29 colon = system: HT29 colon
HCT-15 colon = system: HCT-15 colon
NCI/ADR-RES ovarian = system: NCI/ADR-RES ovarian
HOP-92 NSCLC = system: HOP-92 NSCLC
HL-60(TB) leukemia = system: HL-60(TB) leukemia
SR leukemia = system: SR leukemia
SK-MEL-28 melanoma = system: SK-MEL-28 melanoma
A498 renal = system: A498 renal
SW-620 colon = system: SW-620 colon
HS 578T breast = system: HS 578T breast
NCI-H226 lung = system: NCI-H226 lung
NCI-H522 lung = system: NCI-H522 lung
BT-549 breast = system: BT-549 breast
RXF 393 renal = system: RXF 393 renal
SNB-75 CNS = system: SNB-75 CNS
UACC-62 melanoma = system: UACC-62 melanoma
SK-OV-3 ovarian = system: SK-OV-3 ovarian
T-47D breast = system: T-47D breast
IGROV1 ovarian = system: IGROV1 ovarian
SF-539 CNS = system: SF-539 CNS
SF-268 CNS = system: SF-268 CNS

`O=S1(=O)OCCOS(=O)(=O)C1Cc1nc2ccccc2[nH]1` was tested, and the TGI (U251 CNS) was greater than 100 µM, the TGI (RPMI-8226 leukemia) was greater than 100 µM and the TGI (NCI-H23 lung) was greater than 100 µM. The TGI (M14 melanoma) was greater than 100 µM, the TGI (SN12C renal) was greater than 100 µM and the TGI (MCF7 breast) was greater than 100 µM. It also gave a TGI (UO-31 renal) greater than 100 µM, a TGI (MDA-MB-231 breast) greater than 100 µM and a TGI (MOLT-4 leukemia) of 92.4 µM. It also gave a TGI (CCRF-CEM leukemia) greater than 100 µM, a TGI (OVCAR-3 ovarian) greater than 100 µM and a TGI (SK-MEL-5 melanoma) greater than 100 µM. It also gave a TGI (OVCAR-4 ovarian) greater than 100 µM, a TGI (LOX IMVI melanoma) of 38.1 µM and a TGI (SNB-19 CNS) greater than 100 µM. It also gave a TGI (K-562 leukemia) greater than 100 µM, a TGI (HCT-116 colon) of 57 µM and a TGI (CAKI-1 renal) of 95.4 µM. The TGI (OVCAR-5 ovarian) was greater than 100 µM, the TGI (NCI-H460 lung) was greater than 100 µM and the TGI (MDA-N) was greater than 100 µM. For the same compound, the TGI (ACHN renal) was greater than 100 µM, the TGI (TK-10 renal) was greater than 100 µM and the TGI (COLO 205 colon) was greater than 100 µM. It also gave a TGI (786-0 renal) greater than 100 µM, a TGI (OVCAR-8 ovarian) greater than 100 µM and a TGI (SK-MEL-2 melanoma) greater than 100 µM. It also gave a TGI (MDA-MB-435) greater than 100 µM, a TGI (HCC-2998 colon) greater than 100 µM and a TGI (KM12 colon) greater than 100 µM. The TGI (DU-145 prostate) was greater than 100 µM, the TGI (UACC-257 melanoma) was greater than 100 µM and the TGI (SF-295 CNS) was greater than 100 µM. For the same compound, the TGI (HOP-62 NSCLC) was greater than 100 µM, the TGI (MALME-3M melanoma) was greater than 100 µM and the TGI (A549 NSCLC) was greater than 100 µM. For the same compound, the TGI (EKVX NSCLC) was greater than 100 µM, the TGI (PC-3 prostate) was 73.4 µM and the TGI (HT29 colon) was greater than 100 µM. It also gave a TGI (HCT-15 colon) greater than 100 µM, a TGI (NCI/ADR-RES ovarian) greater than 100 µM and a TGI (HOP-92 NSCLC) greater than 100 µM. The TGI (HL-60(TB) leukemia) was 88.4 µM, the TGI (SR leukemia) was greater than 100 µM and the TGI (SK-MEL-28 melanoma) was greater than 100 µM.
`NC(=O)c1cc(I)ccc1NC(=O)COc1ccccc1` was tested, and the GI50 (A498 renal) was 1.27 µM, the TGI (A498 renal) was 7.26 µM and the GI50 (U251 CNS) was 0.365 µM. The TGI (U251 CNS) was 10.8 µM, the GI50 (RPMI-8226 leukemia) was 0.679 µM and the TGI (RPMI-8226 leukemia) was greater than 100 µM. For the same compound, the GI50 (NCI-H23 lung) was 0.822 µM, the TGI (NCI-H23 lung) was 22.4 µM and the GI50 (M14 melanoma) was 0.403 µM. It also gave a TGI (M14 melanoma) greater than 100 µM, a GI50 (SN12C renal) of 2.3 µM and a TGI (SN12C renal) greater than 100 µM. The GI50 (MCF7 breast) was 0.279 µM, the TGI (MCF7 breast) was greater than 100 µM and the GI50 (UO-31 renal) was 4.27 µM. The TGI (UO-31 renal) was greater than 100 µM, the GI50 (SW-620 colon) was 0.432 µM and the TGI (SW-620 colon) was greater than 100 µM. The GI50 (MDA-MB-231 breast) was 1.32 µM, the TGI (MDA-MB-231 breast) was 26.6 µM and the GI50 (MOLT-4 leukemia) was 1.05 µM. It also gave a TGI (MOLT-4 leukemia) greater than 78.4 µM, a GI50 (HS 578T breast) of 0.462 µM and a TGI (HS 578T breast) of 36.1 µM. It also gave a GI50 (CCRF-CEM leukemia) of 0.463 µM, a TGI (CCRF-CEM leukemia) greater than 100 µM and a GI50 (OVCAR-3 ovarian) of 0.336 µM. It also gave a TGI (OVCAR-3 ovarian) of 1.35 µM, a GI50 (SK-MEL-5 melanoma) of 0.533 µM and a TGI (SK-MEL-5 melanoma) greater than 100 µM. It also gave a GI50 (LOX IMVI melanoma) of 1.01 µM, a TGI (LOX IMVI melanoma) greater than 100 µM and a GI50 (SNB-19 CNS) of 0.699 µM. For the same compound, the TGI (SNB-19 CNS) was 44.1 µM, the GI50 (K-562 leukemia) was 0.214 µM and the TGI (K-562 leukemia) was 24.2 µM. The GI50 (HCT-116 colon) was 0.499 µM, the TGI (HCT-116 colon) was 16.1 µM and the GI50 (CAKI-1 renal) was 0.547 µM. For the same compound, the TGI (CAKI-1 renal) was greater than 100 µM, the GI50 (NCI-H226 lung) was 3.48 µM and the TGI (NCI-H226 lung) was greater than 100 µM. The GI50 (OVCAR-5 ovarian) was 2.24 µM, the TGI (OVCAR-5 ovarian) was greater than 100 µM and the GI50 (NCI-H460 lung) was 0.433 µM. It also gave a TGI (NCI-H460 lung) greater than 100 µM, a GI50 (ACHN renal) of 1.5 µM and a TGI (ACHN renal) greater than 100 µM. The GI50 (NCI-H522 lung) was 0.508 µM, the TGI (NCI-H522 lung) was 12.9 µM and the GI50 (BT-549 breast) was 0.644 µM. For the same compound, the TGI (BT-549 breast) was 31.5 µM, the GI50 (TK-10 renal) was 5.38 µM and the TGI (TK-10 renal) was 50.9 µM. The GI50 (RXF 393 renal) was 0.453 µM, the TGI (RXF 393 renal) was 4.53 µM and the GI50 (COLO 205 colon) was 0.323 µM. The TGI (COLO 205 colon) was 1.97 µM, the GI50 (SNB-75 CNS) was 0.316 µM and the TGI (SNB-75 CNS) was 4.49 µM. The GI50 (786-0 renal) was 0.957 µM, the TGI (786-0 renal) was 18.8 µM and the GI50 (UACC-62 melanoma) was 0.814 µM. It also gave a TGI (UACC-62 melanoma) greater than 100 µM, a GI50 (OVCAR-8 ovarian) of 0.876 µM and a TGI (OVCAR-8 ovarian) greater than 100 µM. It also gave a GI50 (SK-MEL-2 melanoma) of 0.566 µM, a TGI (SK-MEL-2 melanoma) of 16.3 µM and a GI50 (MDA-MB-435) of 0.107 µM. It also gave a TGI (MDA-MB-435) of 0.359 µM, a GI50 (HCC-2998 colon) of 2.5 µM and a TGI (HCC-2998 colon) greater than 100 µM. For the same compound, the GI50 (SK-OV-3 ovarian) was 3.21 µM, the TGI (SK-OV-3 ovarian) was greater than 69.1 µM and the GI50 (T-47D breast) was 0.556 µM. For the same compound, the TGI (T-47D breast) was greater than 100 µM, the GI50 (KM12 colon) was 0.328 µM and the TGI (KM12 colon) was greater than 100 µM. For the same compound, the GI50 (DU-145 prostate) was 0.457 µM, the TGI (DU-145 prostate) was 32.2 µM and the GI50 (UACC-257 melanoma) was 41.7 µM. It also gave a TGI (UACC-257 melanoma) greater than 100 µM, a GI50 (SF-295 CNS) of 0.256 µM and a TGI (SF-295 CNS) of 3.39 µM. For the same compound, the GI50 (HOP-62 NSCLC) was 0.598 µM, the TGI (HOP-62 NSCLC) was 12.4 µM and the GI50 (MALME-3M melanoma) was 7.28 µM. The TGI (MALME-3M melanoma) was greater than 100 µM, the GI50 (A549 NSCLC) was 0.63 µM and the TGI (A549 NSCLC) was greater than 100 µM. It also gave a GI50 (IGROV1 ovarian) of 2.34 µM, a TGI (IGROV1 ovarian) greater than 100 µM and a GI50 (PC-3 prostate) of 0.471 µM. For the same compound, the TGI (PC-3 prostate) was greater than 100 µM, the GI50 (HT29 colon) was 0.367 µM and the TGI (HT29 colon) was greater than 100 µM. The GI50 (SF-539 CNS) was 0.29 µM, the TGI (SF-539 CNS) was 1.58 µM and the GI50 (HCT-15 colon) was 0.33 µM. The TGI (HCT-15 colon) was greater than 100 µM, the GI50 (NCI/ADR-RES ovarian) was 0.329 µM and the TGI (NCI/ADR-RES ovarian) was 5.43 µM. For the same compound, the GI50 (HOP-92 NSCLC) was 2.98 µM, the TGI (HOP-92 NSCLC) was 21.4 µM and the GI50 (HL-60(TB) leukemia) was 0.335 µM. For the same compound, the TGI (HL-60(TB) leukemia) was 27.8 µM, the GI50 (SR leukemia) was 0.285 µM and the TGI (SR leukemia) was greater than 74.1 µM. For the same compound, the GI50 (SF-268 CNS) was 1.14 µM, the TGI (SF-268 CNS) was 26.1 µM and the GI50 (SK-MEL-28 melanoma) was 2.57 µM. It also gave a TGI (SK-MEL-28 melanoma) greater than 100 µM.
